Measurements as given in patent US9895324B2, “Halogenated diarylacetylenes and methods of treating cancer” (UNIVERSITY OF KENTUCKY RESEARCH FOUNDATION, priority 2014, dated 2018).
“Also recorded” adds a separate entry of the source. Like-named read-outs stand apart in the source and are kept apart here.

Legend:
[1] = system: LS174T cells; experiment: Cell proliferation assay, LS174T colon cancer cells; format: cell-based
Protocol: Cell Proliferation Assay.
LS174T cells were grown in RPMI medium (Mediatech) supplemented with 5% fetal bovine serum and 1% penicillin/streptomycin. For cell proliferation assays, 3×10^4 cells/well growing in 12-well plates were treated with DMSO or inhibitors. The cell numbers and viability were analyzed by Vi-Cell Cell Viability Analyzer after 4 days. The IC50 values were calculated with GraphPad Prim 5.

[2] = biological target: catalytic subunit of methionine S-adenosyltransferase-2 (MAT-2) (Homo sapiens, UniProt P31153); conditions: cited from earlier work
[3] = biological target: MAT2 (Homo sapiens, UniProt P31153); experiment: MAT2A inhibition assay; format: biochemical; conditions: compared with stilbene 1
Source text: We reported previously that stilbenes repressed colon cancer cell proliferation by inhibiting c-myc expression and inducing the cell cycle inhibitor, p21(Wif1/Cip1). See Zhang et al. J Med Chem 2011: 54:1288-1297. The similarity of the diarylacetylenes to the stilbenes also prompted an in silico modeling study of the binding of (E)-4-(2′,6′-difluorostyryl)-N,N-dimethylaniline (1) and 4((2,6-difluorophenyl)ethynyl)-N,N-dimethylaniline (2m). It was believed that para-oriented amino-substituents, such as the N-methylamino and N,N-dimethylamino groups, were associated with potent MAT2A inhibition. […] Variability in the MAT2A inhibition assay made the measurement of c-myc inhibition a preferred analytical tool for assessing the potency of diarylacetylenes.

[4] = Homo sapiens, LS174T, 96 h, 4 days, read-out: Inhibition of LS174T Cell Proliferation IC50
[5] = 4 days, read-out: Inhibition of LS174T Cell Proliferation IC50

catalytic subunit of methionine S-adenosyltransferase-2 (MAT-2), sequence (P31153 whole entry): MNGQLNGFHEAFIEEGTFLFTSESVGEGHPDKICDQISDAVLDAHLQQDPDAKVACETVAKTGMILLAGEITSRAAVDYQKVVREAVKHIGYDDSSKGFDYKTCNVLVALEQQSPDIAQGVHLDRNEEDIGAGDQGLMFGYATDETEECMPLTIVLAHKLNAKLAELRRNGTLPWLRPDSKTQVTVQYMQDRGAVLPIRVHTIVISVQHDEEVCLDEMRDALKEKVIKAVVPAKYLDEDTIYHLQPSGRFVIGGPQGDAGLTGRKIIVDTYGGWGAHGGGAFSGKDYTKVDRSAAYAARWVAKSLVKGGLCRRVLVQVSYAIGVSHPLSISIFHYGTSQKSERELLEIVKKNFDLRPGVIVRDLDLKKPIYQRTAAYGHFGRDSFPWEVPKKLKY
MAT2, sequence (P31153 whole entry): as above

| IC50 [1, 4] [nM] | melting point [°C] | Compound | Potency as inhibitor of LS174T cell proliferation (in words) [1] | further results |
| --- | --- | --- | --- | --- |
| 59 ± 7.5 |  | CN(C)c1ccc(/C=C/c2c(F)cccc2F)cc1 [Compound 1, (E)-4-(2′,6′-difluorostyryl)-N,N-dimethylaniline, reference compound] |  | Molecular target [2]: targeted exclusively the catalytic subunit of methionine S-adenosyltransferase-2 (MAT-2) |
| 55 ± 7.8 | 104 to 105 | Nc1ccc(C#Cc2c(F)cccc2F)cc1 [Compound 2a, 4-((2,6-Difluorophenyl)ethynyl)aniline] |  | IC50 ([1]; Homo sapiens, LS174T, read-out: IC50 (inhibition of LS174T cell proliferation)): 55 ± 7.8 nM |
|  | 69 to 70 | CNc1ccc(C#Cc2c(F)cccc2F)cc1 [Compound 2b, 4-((2,6-Difluorophenyl)ethynyl)-N-methylaniline] |  |  |
| > 3000 | 104 to 106 | CN(C)c1ccc(C#Cc2ccccc2)cc1 [Compound 2c, N,N-Dimethyl-4-(phenylethynyl)aniline] | very low potency |  |
| < 50 | 94 to 96 | CN(C)c1ccc(C#Cc2ccccc2F)cc1 [Compound 2d, 4-((2-Fluorophenyl)ethynyl)-N,N-dimethylaniline] |  | IC50 [1, 5]: 39 ± 6 nM |
| < 50 | 108 to 110 | CN(C)c1ccc(C#Cc2ccccc2Cl)cc1 [Compound 2e, 4-((2-Chlorophenyl)ethynyl)-N,N-dimethylaniline] |  | IC50 [1, 5]: 31 ± 3.1 nM |
| > 3000 | 99 to 100 | CN(C)c1ccc(C#Cc2cccc(F)c2)cc1 [Compound 2f, 4-((3-Fluorophenyl)ethynyl)-N,N-dimethylaniline] | significantly less active |  |
| > 3000 | 132 to 134 | CN(C)c1ccc(C#Cc2ccc(F)cc2)cc1 [Compound 2g, 4-((4-Fluorophenyl)ethynyl)-N,N-dimethylaniline] | very low potency; also recorded: significantly less active |  |
| 119 ± 4.6 | 104 to 106 | CN(C)c1ccc(C#Cc2cccc(F)c2F)cc1 [Compound 2h, 4-((2,3-Difluorophenyl)ethynyl)-N,N-dimethylaniline] |  |  |
| 56 ± 8.1 | 116 to 118 | CN(C)c1ccc(C#Cc2ccc(F)cc2F)cc1 [Compound 2i, 4-((2,4-Difluorophenyl)ethynyl)-N,N-dimethylaniline] |  |  |
| > 3000 | 100 to 101 | CN(C)c1ccc(C#Cc2ccc(F)c(F)c2)cc1 [Compound 2j, 4-((3,4-Difluorophenyl)ethynyl)-N,N-dimethylaniline] | significantly less active |  |
| > 3000 | 72 to 74 | CN(C)c1ccc(C#Cc2cc(F)cc(F)c2)cc1 [Compound 2k, 4-((3,5-Difluorophenyl)ethynyl)-N,N-dimethylaniline] | significantly less active |  |
| 55 ± 6 | 106 to 107 | CN(C)c1ccc(C#Cc2cc(F)ccc2F)cc1 [Compound 2l, 4-((2,5-Difluorophenyl)ethynyl)-N,N-dimethylaniline] |  |  |
|  |  | CN(C)c1ccc(C#Cc2c(F)cccc2F)cc1 [Compound 2m, 4-((2,6-Difluorophenyl)ethynyl)-N,N-dimethylaniline] |  | MAT2 inhibition (in words, data not shown) [3]: inhibited MAT2 at concentrations comparable to that of the stilbene 1 |
|  | 86 to 88 | CN(C)c1ccc(C#Cc2c(F)cccc2Cl)cc1 [Compound 2n, 4-((2-Chloro-6-fluorophenyl)ethynyl)-N,N-dimethylaniline] |  |  |
| 52 ± 7.1 | 96 to 98 | CN(C)c1ccc(C#Cc2c(Cl)cccc2Cl)cc1 [Compound 2o, 4-((2,6-Dichlorophenyl)ethynyl)-N,N-dimethylaniline] |  |  |
